How the values were obtained:
[1] = test system: Rb phosphorylation in MTLn3 tumors; test: Rb phosphorylation in rat MTLn3 tumor xenografts after a single oral dose; type: in vivo; details: single oral dose 80 mg/kg, Western blot
Experimental: The dose selected was 80 mg/kg, determined to be an efficacious dose in this animal model. Tumor growth inhibition in the MTLn3 xenograft model after 2 to 3 weeks of oral dosing at 80 mg/kg once weekly averaged 90% with 2/10 complete regressions. COMPOUND A was dosed on day 10 post implantation of cells, at which time the tumors were 100-200 mm^3 in size. In this pharmacokinetic/pharmacodynamic experiment, plasma and tumors were collected at 1, 2, 6, 24 and 72 hours post dosing of a single oral dose of COMPOUND A. Tumors were removed and immediately snap frozen in liquid nitrogen and stored at −80° C. until drug concentration analysis. […] Concentrations of COMPOUND A in plasma and tumors were determined in the same three animals per time point. […] Peripheral blood mononuclear cells (PBMCs) were isolated, stimulated ex vivo with mitogen and analyzed by Western blot as described below.
In a second pharmacodynamic study, plasma concentrations of COMPOUND A were similarly analyzed as described above, and Rb phosphorylation in both PBMCs and tumor xenografts treated with a single oral dose of COMPOUND A was examined.
PBMCs were collected by transferring the cells, including attached cells and those in suspension, into 50 ml tubes. […] For Western blotting, total Rb was detected using antibody from Pharmingen (BD Bioscience, San Diego, Calif.) at a dilution of 1:2000. […]

MTLn3 xenograft = test: Tumor growth inhibition in the MTLn3 xenograft model; type: in vivo, rat; details: 2 to 3 weeks oral dosing at 80 mg/kg once weekly
Experimental: Female Fischer rats obtained from Charles River Laboratories were used when they were ˜13-15 weeks old and weighed ˜150 grams. All animals were examined prior to the initiation of studies to ensure that they were healthy and acclimated to the laboratory environment. Autoclaved water and irradiated food were provided ad libitum, and the animals were maintained in a 12 hour light and dark cycle. MTLn3 cells were grown in RPMI 1640 supplemented with 10% heat-inactivated Fetal Bovine Serum (HI-FBS; GIBCO/Invitrogen, Carlsbad, Calif.) and 2 mM L-glutamine (GIBCO/Invitrogen) and maintained at 37° C. at 5% CO2. The MTLn3 cells were obtained from Hoffmann-La Roche Inc., Nutley, N.J. Approximately 1×10^6 cells/0.2mls/rat in PBS (Phosphate Buffered Saline) Phenol-red free, Ca^+2 and Mg^+2-free were implanted subcutaneously in the right mammary fat pad. The dose selected was 80 mg/kg, determined to be an efficacious dose in this animal model. Tumor growth inhibition in the MTLn3 xenograft model after 2 to 3 weeks of oral dosing at 80 mg/kg once weekly averaged 90% with 2/10 complete regressions. […] Concentrations of COMPOUND A in plasma and tumors were determined in the same three animals per time point. […] Peripheral blood mononuclear cells (PBMCs) were isolated, stimulated ex vivo with mitogen and analyzed by Western blot as described below.

`COc1ccc(F)c(F)c1C(=O)c1cnc(NC2CCN(S(C)(=O)=O)CC2)nc1N` [COMPOUND A, [4-amino-2-(1-methanesulfonylpiperidin-4-ylamino)pyrimidin-5-yl]-(2,3-difluoro-6-methoxyphenyl)methanone] was tested, and the “Rb phosphorylation (serine 807/811) in tumor xenografts” value [1] was “reduction in phosphorylation of Rb”, the Tumor growth inhibition (MTLn3 xenograft) was 90% and the complete regressions (MTLn3 xenograft) was 2/10.

— patent US20060269482A1 (priority 2005, published 2006)
